Measured values from patent US5059596A, “Azabicyclo compounds” (Roussel Uclaf, priority 1989, dated 1991).
Like-named read-outs stand apart in the source and are kept apart here.

Assays:
[1] = molecular target: T1, 5-lipoxygenase (Cavia porcellus, UniProt A0A286X958); experiment: inhibition of eicosanoid synthesis by guinea pig peritoneal neutrophils: 5-lipoxygenase product (5-HETE) synthesis; assay type: cell-based; conditions: [^14 C]-arachidonic acid and calcium ionophore
T1 construct: synthesis of eicosanoids by guinea pig peritoneal neutrophils; endogenous in cells; host or cells: guinea pig peritoneal neutrophils
T1 sequence (A0A286X958 1-674): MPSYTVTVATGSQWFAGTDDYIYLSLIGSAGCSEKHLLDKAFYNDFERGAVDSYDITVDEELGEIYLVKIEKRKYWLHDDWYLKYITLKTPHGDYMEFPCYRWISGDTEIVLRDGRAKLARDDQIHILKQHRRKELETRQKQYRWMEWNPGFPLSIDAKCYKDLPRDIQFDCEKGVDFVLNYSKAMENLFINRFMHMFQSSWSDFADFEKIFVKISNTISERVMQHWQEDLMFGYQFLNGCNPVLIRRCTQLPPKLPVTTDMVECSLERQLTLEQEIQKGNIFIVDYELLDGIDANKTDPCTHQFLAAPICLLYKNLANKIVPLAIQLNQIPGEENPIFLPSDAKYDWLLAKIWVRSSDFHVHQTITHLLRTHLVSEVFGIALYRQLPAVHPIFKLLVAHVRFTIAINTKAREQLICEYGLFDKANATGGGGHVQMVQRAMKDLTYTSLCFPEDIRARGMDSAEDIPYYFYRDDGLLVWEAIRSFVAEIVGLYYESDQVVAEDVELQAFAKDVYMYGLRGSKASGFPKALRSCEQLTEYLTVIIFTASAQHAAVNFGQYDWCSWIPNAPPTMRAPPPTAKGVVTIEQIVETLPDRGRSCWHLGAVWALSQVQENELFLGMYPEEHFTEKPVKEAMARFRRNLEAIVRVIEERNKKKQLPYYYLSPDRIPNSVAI
Protocol: (§1) The compounds were tested for their activity as inhibitors of the synthesis of eicosanoids by guinea pig peritoneal neutrophils following the addition of [^14 C]-arachidonic acid and calcium ionophore, using a modification of the method published by Harvey et al [J. Pharmacol. Methods, Vol. 9(2), p 147-155 (1983)].

[2] = test system: cyclooxygenase; experiment: inhibition of eicosanoid synthesis by guinea pig peritoneal neutrophils: cyclooxygenase product (TX B2 and 5-HHT) synthesis; assay type: cell-based; conditions: [^14 C]-arachidonic acid and calcium ionophore
Protocol: as §1

IC50 [1]: > 100 µM
IC50 ([2]; 5-HHT synthesis, read-out: IC50 (5-HHT)): 6.3 µM
IC50 ([2]; TXB2 synthesis, read-out: IC50 (TXB2)): 5 µM
Structure (SMILES): CCSC12ON=C(c3ccc(OC)cc3)N1C(C)(C)C2(C)C (stereo not drawn) [compound 4, 3-(p-methoxyphenyl)-5,5,6,6-tetramethyl-7-ethylthio-1-oxa-2,4-diazabicyclo[3.2.0]hept-2-ene]
